In publication PMC11359531, “Establishment of Dissolution Test Method for Multi-Components in Traditional Chinese Medicine Preparations Based on In Vitro–In Vivo Correlation” (Pharmaceuticals, 2024):

Key:
[1] = Pharmacokinetic study of the Q-markers in beagle dogs; settings: dog
Procedure: An ACQUITY UPLC system from Waters was used for chromatography separation, equipped with a Waters Cortecs C18 column (1.7 μm, 2.1 mm × 50 mm) operated at a flow rate of 0.30 mL/min. The column temperature and auto-sampler temperature were set as 45 °C and 4 °C, respectively. The mobile phases were 10 mM ammonium acetate solution (pH 5.0 by acetic acid) (A) and acetonitrile (B) and the gradient elution used was as follows: 30–39% B from 0–3.3 min, 39–95% B from 3.3–5.4 min, 95% B from 5.4–7.4 min, 95–30% B from 7.4–13.5 min, and 30% B from 13.5–16.0 min. The injection volume was 3 μL. The AB SCIEX Qtrap™ 6500 LC-MS/MS system with electron spray ionization (ESI) source in multiple reaction monitoring (MRM) mode was used for MS analysis. The detection was performed under the following conditions: source temperature (at set point) at 550.0 °C, positive ion mode, GS1 at 40 psi, GS2 at 40 psi, CUR at 45 psi, CXP at 15 V, DP at 100 V, and EP at 10 V. Quantitative analysis of analytes in MRM mode was used to determine the transition of precursor ions to specific product ions (m/z): tetrahydropalmatine, m/z […] [M + H]+ → m/z 229.0 (collision energy, CE: 17 V), corydaline, m/z […] (CE: 17 V), protopin, m/z […] [M + H]+ → m/z 227.1 (CE: 23 V), allocryptopine, m/z […] [M + H]+ → m/z 373.2 (CE: 17 V), and byakangelicin, m/z 389.2 [M + H]+ → m/z 363.1 (CE: 17 V). The data were processed using MultiQuant™ 2.1 software purchased from SCIEX.
(§1) The standard solutions of tetrahydropalmatine, corydaline, protopin, α-allocryptopine, and byakangelicin were prepared by dissolving them in acetonitrile to obtain a mixed standard stock solution, which was further diluted with acetonitrile to prepare a series of different concentration gradient mixed standard solutions. An internal standard solution of 25 ng/mL was prepared from betamethasone solution (500 μg/mL) diluted with acetonitrile. Blank dog blood was collected through intravenous blood sampling, and plasma was obtained by centrifugation. To prepare the standard plasma sample, 25 μL of the mixed standard solution was added to 100 μL of blank plasma, and 400 μL of acetonitrile was added and vortexed for protein precipitation. The supernatant was acquired by centrifugation and blown dry with nitrogen. Then, 100 μL of acetonitrile was added to the dried supernatant, and the resulting solution was mixed to gain the standard plasma sample. Different mixed standard solution including a serial of concentrations of tetrahydropalmatine: 0.625–25 ng/mL, corydaline: 0.625–25 ng/mL, protopin: 0.1–4 ng/mL, α-allocryptopine: 0.1–4 ng/mL, byakangelicin: 18.75–750 ng/mL were applied to prepare standard plasma sample and quality control (QC) samples of plasma as follows: 1.25, 5, and 20 ng/mL for tetrahydropalmatine and corydaline, 0.2, 0.8, and 3.2 ng/mL for protopin and α-allocryptopine, and 37.5, 150, and 600 ng/mL for byakangelicin.
For pharmacokinetic study, six beagle dogs were used and housed in a professional animal breeding room with a relative humidity of 55–60% and a temperature of 25 °C for one week. The experimental operation was carried out in accordance with ethical requirements for animal experiments and approved by the Institutional Animal Care and Use Committee of the School of Pharmacy, Fudan University. The dogs had free access to drinking water and were fasted for 24 h before the experiment. The dogs were randomly divided into two groups, one group receiving an oral dose of 12 tablets with brand A (tetrahydropalmatine 2.5 mg, corydaline 0.963 mg, protopin 1.896 mg, α-allocryptopine 0.917 mg, and byakangelicin 2.783 mg), while the other group were given an intravenous dose of 2 mL of normal saline containing tetrahydropalmatine 19.75 μg, corydaline 4.54 μg, protopin 168.062 μg, α-allocryptopine 297.16 μg, and byakangelicin 78.68 μg. Blood samples of 2 mL were taken at 15, 30, 45, 60, 90, 120, 150, 180, 240, 360, 480, 720, and 1440 min after dosing.

[2] = Stability of Q-markers in plasma; design: species or system dog; settings: n = 6
Procedure: as §1, with “[…],” for “0.2, 0.8, and 3.2 ng/mL for protopin and α-allocryptopine,”

[3] = Unit impulse response (UIR) fitting of pharmacokinetic data; settings: best-fitted UIR, Akaike model
Source text: The Phoenix WinNonlin IVIVC tool was utilized to evaluate the relationship between in vivo drug dissolution rate and blood drug concentration, which utilizes the Unit Impulse Response (UIR) function for this purpose. By using intravenous administration as the input for the unit impulse response, the influence of drug absorption can be eliminated. The obtained UIR function will be utilized for the deconvolution of pharmacokinetic data to obtain the curve of cumulative drug absorption over time [50]. (8) Y(t)=A×exp[Alpha×(t×Ka−tlag)] in which Y(t) is unit impulse response, A is the coefficient value, Alpha is the exponential value, Ka is the absorption rate constant, tlag is the lag time.

[4] = External validation of IVIVC model with another brand of YZTs; settings: beagle, dog, blood, po
Source text: In order to further apply the identified in vivo correlated dissolution conditions to different batches of YZTs, another brand of YZTs was selected for external validation of the dissolution conditions and IVIVC model results. The dissolution data of different brands in the identified media were input into the established IVIVC model to obtain the predicted blood concentration–time curve and to compare the PE% between the predicted value and the actual value.

Work on `COc1c2ccoc2c(OC[C@@H](O)C(C)(C)O)c2oc(=O)ccc12` [Byakangelicin, byakangelicin] yielded an AUC(0-inf) ([1]; beagle, plasma, iv) of 11.7 ng·h/mL, an AUC(0-t) ([1]; beagle, plasma, iv) of 11.1 ng·h/mL and a Cmax ([1]; beagle, plasma, iv) of 11.8 ng/mL. It also gave a Tmax ([1]; beagle, plasma, iv) of 0.0833 h, a half-life ([1]; beagle, plasma, iv) of 0.775 h and an AUC ([1]; beagle, plasma, po) of 59.7 ng·h/mL. For the same compound, the AUC(0-inf) ([1]; beagle, plasma, po) was 65.3 ng·h/mL, the AUC(0-t) ([1]; beagle, plasma, po) was 59.7 ng·h/mL and the Cmax ([1]; beagle, plasma, po) was 27.3 ng/mL. The Tmax ([1]; beagle, plasma, po) was 1 h, the bioavailability ([1]; beagle, plasma, po) was 3.81% and the half-life ([1]; beagle, plasma, po) was 3.29 h. The Relative content ([2]; 37.5 ng/mL, 6℃-6h) was 90.02%, the Relative content ([2]; 37.5 ng/mL, 20℃-24h) was 93.00% and the Relative content ([2]; 37.5 ng/mL, Freeze-thaw thrice) was 92.93%. It also gave a Relative content ([2]; 150 ng/mL, 6℃-6h) of 93.99%, a Relative content ([2]; 150 ng/mL, 20℃-24h) of 93.39% and a Relative content ([2]; 150 ng/mL, Freeze-thaw thrice) of 93.32%. It also gave a Relative content ([2]; 600 ng/mL, 6℃-6h) of 88.54%, a Relative content ([2]; 600 ng/mL, 20℃-24h) of 89.73% and a Relative content ([2]; 600 ng/mL, Freeze-thaw thrice) of 89.66%. The “UIR parameter A1, Estimate” value [3] was 0.02 ng/mL, the “UIR parameter Ka, Estimate” value [3] was 2.23 h⁻¹ and the “UIR parameter Tlag, Estimate” value [3] was 0.45 h. The “UIR parameter alpha1, Estimate” value [3] was 1.18 h⁻¹, the AUC [4] was 54.5 ng·h/mL and the Cmax [4] was 29.6 ng/mL.

In the case of `COc1cc2c(cc1OC)[C@H]1[C@@H](C)c3ccc(OC)c(OC)c3CN1CC2` [Corydaline, corydaline], the AUC(0-inf) ([1]; beagle, plasma, iv) is reported as 7.18 ng·h/mL, the AUC(0-t) ([1]; beagle, plasma, iv) is reported as 6.5 ng·h/mL and the Cmax ([1]; beagle, plasma, iv) is reported as 5.01 ng/mL. The Tmax ([1]; beagle, plasma, iv) was 0.0833 h, the half-life ([1]; beagle, plasma, iv) was 3.96 h and the AUC ([1]; beagle, plasma, po) was 74.2 ng·h/mL. It also gave an AUC(0-inf) ([1]; beagle, plasma, po) of 81.1 ng·h/mL, an AUC(0-t) ([1]; beagle, plasma, po) of 74.2 ng·h/mL and a Cmax ([1]; beagle, plasma, po) of 24.8 ng/mL. For the same compound, the Tmax ([1]; beagle, plasma, po) was 1.5 h, the bioavailability ([1]; beagle, plasma, po) was 5.38% and the half-life ([1]; beagle, plasma, po) was 8.74 h. The Relative content ([2]; 1.25 ng/mL, 6℃-6h) was 98.22%, the Relative content ([2]; 1.25 ng/mL, 20℃-24h) was 98.02% and the Relative content ([2]; 1.25 ng/mL, Freeze-thaw thrice) was 97.95%. It also gave a Relative content ([2]; 5 ng/mL, 6℃-6h) of 93.89%, a Relative content ([2]; 5 ng/mL, 20℃-24h) of 102.35% and a Relative content ([2]; 5 ng/mL, Freeze-thaw thrice) of 102.28%. For the same compound, the Relative content ([2]; 20 ng/mL, 6℃-6h) was 107.01%, the Relative content ([2]; 20 ng/mL, 20℃-24h) was 100.80% and the Relative content ([2]; 20 ng/mL, Freeze-thaw thrice) was 100.73%. For the same compound, the “UIR parameter A1, Estimate” value [3] was 0.05 ng/mL, the “UIR parameter Ka, Estimate” value [3] was 1.46 h⁻¹ and the “UIR parameter Tlag, Estimate” value [3] was 0.44 h. The “UIR parameter alpha1, Estimate” value [3] was 1.42 h⁻¹, the AUC [4] was 34.3 ng·h/mL and the Cmax [4] was 12 ng/mL.

Work on `COc1cc2c(cc1OC)[C@@H]1Cc3ccc(OC)c(OC)c3CN1CC2` [Tetrahydropalmatine, tetrahydropalmatine] yielded an AUC(0-inf) ([1]; beagle, plasma, iv) of 10.9 ng·h/mL, an AUC(0-t) ([1]; beagle, plasma, iv) of 9.87 ng·h/mL and a Cmax ([1]; beagle, plasma, iv) of 11.4 ng/mL. For the same compound, the Tmax ([1]; beagle, plasma, iv) was 0.0833 h, the half-life ([1]; beagle, plasma, iv) was 6.66 h and the AUC ([1]; beagle, plasma, po) was 136 ng·h/mL. For the same compound, the AUC(0-inf) ([1]; beagle, plasma, po) was 137 ng·h/mL, the AUC(0-t) ([1]; beagle, plasma, po) was 136 ng·h/mL and the Cmax ([1]; beagle, plasma, po) was 45.7 ng/mL. It also gave a Tmax ([1]; beagle, plasma, po) of 1.5 h, a bioavailability ([1]; beagle, plasma, po) of 10.8% and a half-life ([1]; beagle, plasma, po) of 3.9 h. For the same compound, the Relative content ([2]; 1.25 ng/mL, 6℃-6h) was 94.31%, the Relative content ([2]; 1.25 ng/mL, 20℃-24h) was 100.16% and the Relative content ([2]; 1.25 ng/mL, Freeze-thaw thrice) was 100.09%. It also gave a Relative content ([2]; 5 ng/mL, 6℃-6h) of 99.79%, a Relative content ([2]; 5 ng/mL, 20℃-24h) of 102.60% and a Relative content ([2]; 5 ng/mL, Freeze-thaw thrice) of 102.53%. The Relative content ([2]; 20 ng/mL, 6℃-6h) was 97.35%, the Relative content ([2]; 20 ng/mL, 20℃-24h) was 100.19% and the Relative content ([2]; 20 ng/mL, Freeze-thaw thrice) was 100.12%. It also gave an AUC [4] of 59.9 ng·h/mL and a Cmax [4] of 16.4 ng/mL.

`COc1ccc2c(c1OC)CN(C)CCc1cc3c(cc1C(=O)C2)OCO3` [α-allocryptopine] showed an AUC(0-inf) ([1]; beagle, in vivo, iv) of 39.6 ng·h/mL, an AUC(0-t) ([1]; beagle, in vivo, iv) of 35.9 ng·h/mL and a Cmax ([1]; beagle, in vivo, iv) of 32.8 ng/mL. It also gave a Tmax ([1]; beagle, in vivo, iv) of 0.0833 h, a half-life ([1]; beagle, in vivo, iv) of 5.52 h and an AUC ([1]; beagle, in vivo, po) of 8.31 ng·h/mL. For the same compound, the AUC(0-inf) ([1]; beagle, in vivo, po) was 9.12 ng·h/mL, the AUC(0-t) ([1]; beagle, in vivo, po) was 8.31 ng·h/mL and the Cmax ([1]; beagle, in vivo, po) was 3.51 ng/mL. The Tmax ([1]; beagle, in vivo, po) was 1 h, the bioavailability ([1]; beagle, in vivo, po) was 7.5% and the half-life ([1]; beagle, in vivo, po) was 8.39 h. For the same compound, the Relative content ([2]; 0.2 ng/mL, 6℃-6h) was 91.78%, the Relative content ([2]; 0.2 ng/mL, 20℃-24h) was 100.07% and the Relative content ([2]; 0.2 ng/mL, Freeze-thaw thrice) was 100.00%. The Relative content ([2]; 0.5 ng/mL, 6℃-6h) was 100.95%, the Relative content ([2]; 0.5 ng/mL, 20℃-24h) was 101.06% and the Relative content ([2]; 0.5 ng/mL, Freeze-thaw thrice) was 100.99%. It also gave a Relative content ([2]; 3.2 ng/mL, 6℃-6h) of 107.49%, a Relative content ([2]; 3.2 ng/mL, 20℃-24h) of 98.70% and a Relative content ([2]; 3.2 ng/mL, Freeze-thaw thrice) of 98.63%. The “UIR parameter A1, Estimate” value [3] was 0 ng/mL, the “UIR parameter Ka, Estimate” value [3] was 5.65 h⁻¹ and the “UIR parameter Tlag, Estimate” value [3] was 0.67 h. For the same compound, the “UIR parameter alpha1, Estimate” value [3] was 1.13 h⁻¹, the AUC [4] was 2.04 ng·h/mL and the Cmax [4] was 0.5 ng/mL.

With protopine the “Bioavailability (absolute oral)” value ([1]; in vivo) was 1.35%, the Cl/F ([1]; in vivo, iv) was 0.03 L/h and the Cmax ([1]; in vivo, iv) was 12.44 ng/mL. For the same compound, the T1/2 ([1]; in vivo, iv) was 4.5773 h, the Tmax ([1]; in vivo, iv) was 0.083 h and the Vz/F ([1]; in vivo, iv) was 0.22 L. The Cl/F ([1]; in vivo, po) was 0.21 L/h, the Cmax ([1]; in vivo, po) was 1.63 ng/mL and the “Observed AUC” value ([1]; in vivo, po) was 205.15. It also gave an Observed Cmax ([1]; in vivo, po) of 1.63 ng/mL, a T1/2 ([1]; in vivo, po) of 5.321 h and a Tmax ([1]; in vivo, po) of 1.5 h. For the same compound, the Vz/F ([1]; in vivo, po) was 1.64 L, the Relative content ([2]; 0.2 ng/mL, 6℃-6h) was 99.33% and the Relative content ([2]; 0.2 ng/mL, 20℃-24h) was 96.07%. For the same compound, the Relative content ([2]; 0.2 ng/mL, Freeze-thaw thrice) was 96.00%, the Relative content ([2]; 0.5 ng/mL, 6℃-6h) was 93.89% and the Relative content ([2]; 0.5 ng/mL, 20℃-24h) was 100.60%. It also gave a Relative content ([2]; 0.5 ng/mL, Freeze-thaw thrice) of 100.53%, a Relative content ([2]; 3.2 ng/mL, 6℃-6h) of 103.43% and a Relative content ([2]; 3.2 ng/mL, 20℃-24h) of 101.63%. It also gave a Relative content ([2]; 3.2 ng/mL, Freeze-thaw thrice) of 101.56%.
